From patent US12642794B2, “Dose regimens for use of LY3154207 in the treatment of dopaminergic CNS disorders” (Eli Lilly and Company, priority 2018, dated 2026)
Entries after “also recorded” stand apart in the source; their conditions may differ. Like-named read-outs stand apart in the source and are kept apart here.

How the values were obtained:
Assay type in all cases: in vivo, human
[1] = tested on: healthy volunteers; assay: HBEC cognition tests: Digit Symbol Substitution Test (DSST), Hopkins Verbal Learning Test (HVLT); conditions: 15 mg
[2] = HBEC Part B pharmacokinetics, participants with PD; conditions: for Cmax / AUC(0-t) / Tmax: human, oral, 75 mg; for AUC(0-t): read-out: AUC(0-24); for Tmax: read-out: tmax, median
Description: (§1) In this randomized, double-blind, placebo-controlled, multiple ascending dose, parallel-group study, HBEC, healthy subjects (Part A) and participants with PD (Part B) received once-daily doses of LY3154207 (15, 30, 75, or 150 mg in Part A and up to 75 mg in Part B) or placebo for 14 days, as illustrated in FIG. 3.
(§2) Study outcomes included 24-hour ambulatory blood pressure monitoring (ABPM), treatment-emergent adverse events (TEAEs), and PK assessments in both healthy subjects and participants with PD, as well as Movement Disorder Society-United Parkinson's Disease Rating Scale (MDS-UPDRS) assessments to evaluate the impact of LY3154207 on motor function in participants with PD. The objective was to explore the safety, tolerability, and pharmacokinetics (PK) of multiple oral daily dosing of LY3154207 in healthy subjects (Part A) and in participants with PD (Part B).

[3] = HBEA Part B cerebrospinal fluid (CSF) pharmacokinetics after a single dose
Excerpt: HBEA is a single ascending dose study of a D1 receptor positive allosteric modulator LY3154207 in healthy volunteers. Study HBEA aims to determine the safety, tolerability, and peripheral and central pharmacokinetics (PK) of single ascending doses of LY3154207 in healthy subjects. Study HBEB aims to evaluate the effect of single-dose LY3154207 on sleep latency in sleep-deprived healthy male subjects as measured by a multiple sleep latency test (MSLT). HBEA was a Phase 1, 2-part, randomized, double-blind, placebo-controlled study in healthy males or females. Part A has a 3-period crossover design with 2 alternating, single-dose escalating cohorts, and subjects were randomized to LY3154207 (n=6) or placebo (n=3) in each cohort in each dosing period. Part B has a single-period, single-dose, 2-cohort design with cerebrospinal fluid (CSF) sampling, and subjects were randomized to LY3154207 (n=8) or placebo (n=4) in each cohort.
HBEA Part B is a study of Cerebrospinal fluid (CSF) and plasma pharmacokinetic (PK) profile following a single dose of LY3154207 in healthy volunteers. The objective of the study is to determine the CSF and plasma PK profile of LY3154207 in a single dose study m healthy volunteers. This study consisted of 2 cohorts in a single-dose, single-period, placebo-controlled, randomized, double-blind, parallel-group study. Subjects were randomized to 25 mg and 75 mg and underwent serial blood and CSF sampling at 2 hours pre-dose and 24 hours post-dose to measure concentrations of LY3154207. Twenty-four subjects enrolled and all completed the study. […] Concentrations of LY3154207 in CSF were detectable up to 8 h after a dose of 25 mg and up to 24 hours after a dose of 75 mg. At each dose about 1% of the total LY3154207 exposure in plasma was available in CSF. At 25 mg and 75 mg, central penetration of LY3154207 was confirmed by measurement of LY3154207 in CSF supporting its use according to the dosing regimens of the present invention in dopaminergic CNS disorders.

[4] = tested on: participants with PD; assay: HBEC Part B multiple dose study: TEAEs, vital signs, tolerability
Description: FIG. 3: Design of the study HBEC, a multiple ascending dose study of LY3154207, a randomized, double-blind, placebo-controlled, multiple ascending dose, parallel-group study, of healthy subjects (Part A) and participants with PD (Part B) who received once-daily doses of LY3154207 (15, 30, 75, or 150 mg in Part A and up to 75 mg in Part B) or placebo for 14 days. aEach ascending dose cohort commenced only after review of the safety data to at least Day 7 from the previous cohort. bParticipants with PD in Cohort 6 received titrated doses to determine the effect of this dosing schedule (i.e., Days 1-3:15 mg: Days 4-6:30 mg; and Days 7-14:75 mg) on cardiovascular effects. Note: All cohorts were dosed for 14 days. CRU=clinical research unit: LY=LY3154207; PBO=placebo: PD=Parkinson's disease: R=randomized.
as §1, §2

[5] = in vivo, participants with PD, Day 14, LY 75 mg (N = 8), geometric mean
[6] = in vivo, participants with PD, Day 14, LY 75 mg Titration (N = 8), geometric mean
[7] = participants with PD, LY 75 mg (N = 8), geometric mean
[8] = participants with PD receiving LY3154207
[9] = participants with PD, LY 75 mg Titration (Days 1-3: 15 mg; Days 4-6: 30 mg; Days 7-14: 75 mg) (N = 8)
[10] = participants with PD, LY 75 mg once daily for 14 days (N = 9)

## C[C@H]1c2cccc(CCC(C)(C)O)c2C[C@H](CO)N1C(=O)Cc1c(Cl)cccc1Cl [LY3154207]
[1]
  Hopkins Verbal Learning Test (HVLT), improvement from baseline relative to other arms: largest average improvement from baseline
[1]; both post dose time points
  Digit Symbol Substitution Test (DSST), change from baseline relative to other arms: highest average change from baseline; also recorded: trend for better cognitive effects
[2]; Day 14 after 75 mg
  increase in AUC (0-24) in participants with PD versus healthy subjects: 42%
  increase in Cmax in participants with PD versus healthy subjects: 25%
[2]; [5]
  Cmax: 335 ng/mL
  AUC(0-t): 3050 ng·h/mL
[2]; in vivo, participants with PD, Day 14, LY 75 mg (N = 8)
  Tmax: 2 h
[2]; [6]
  Cmax: 400 ng/mL
  AUC(0-t): 3680 ng·h/mL
[2]; in vivo, participants with PD, Day 14, LY 75 mg Titration (N = 8)
  Tmax: 2.5 h
[2]; in vivo
  exposure in participants with PD compared with healthy subjects: slight increase
[2]; participants with PD
  accumulation upon repeated dosing: minimal accumulation
[2]; participants with PD, Day 14, LY 75 mg (N = 8), geometric mean
  CLss/F: 24.6 L/h
[2]; participants with PD, Day 14, LY 75 mg Titration (N = 8), geometric mean
  CLss/F: 20.4 L/h
[2]; [7]
  RAAUC(0-24) (accumulation ratio Day 14:Day 1): 1.06
  RACmax (accumulation ratio Day 14:Day 1): 1.05
[3]; 25 and 75 mg
  central penetration by measurement in CSF: confirmed
[3]; after a dose of 25 mg
  time for which concentrations in CSF were detectable: up to 8 h
[3]; after a dose of 75 mg
  time for which concentrations in CSF were detectable: up to 24 hours
[3]; both sexes, human, CSF, 25 mg and 75 mg, read-out: share of total plasma exposure available in CSF
  Kp: ~0.01
[3]; both sexes, human, CSF, read-out: CSF median tmax
  Tmax: 3 to 4 h
[3]; both sexes, human, CSF, read-out: CSF t1/2 (converted)
  half-life: 8 h
[3]; both sexes, human, CSF, read-out: CSF/unbound plasma ratio
  Kp: 0.3
[4]; participants with PD
  severe or serious TEAEs: no severe or serious TEAEs
[4]; [8]
  headache, treatment-related AE: 1 n
  hypoesthesia, treatment-related AE: 1 n
  upper abdominal pain, treatment-related AE: 1 n
  visual hallucination, treatment-related AE: 1 n
[4]; [9]
  Number of TEAEs: 7
  Number of TEAEs, Mild: 6
  Number of TEAEs, Moderate: 1
  Subjects with ≥1 TEAE, (%): (62.5) %
[4]; [10]
  Number of TEAEs: 14
  Number of TEAEs, Mild: 13
  Number of TEAEs, Moderate: 1
  Subjects with ≥1 TEAE, (%): (66.7) %
[4]; participants with PD, repeated dosing
  course of the initial increase in SBP, DBP, and pulse rate: accommodation effect was less notable
[4]; up to 75 mg in participants with PD
  tolerability of multiple once-daily doses: well tolerated
